This is an account of results in patent EP3325465B1, “PESTICIDALLY ACTIVE PYRAZOLE DERIVATIVES” (Syngenta Participations AG, priority 2015, dated 2017).

SMILES strings stand for the structures. Where two headings read alike, the source gives them in different places.

Format in all cases: in vivo
Assay [1] deals with Thrips tabaci (Onion thrips). Put plainly: Biological comparison b): insecticidal activity against Thrips tabaci, sunflower leaf discs. The conditions noted are these: foliar, 144 h. The protocol:
b) Insecticidal activity against Thrips tabaci (Onion thrips): Sunflower leaf discs were placed on agar in 24-well microtiter plates and sprayed with aqueous test solutions prepared from 10'000 ppm DMSO stock solutions. After drying the leaf discs were infested with a thrips population of mixed ages. The samples were assessed for mortality 6 days after infestation.

Assay [2] has as its system Thrips tabaci (Onion thrips). Put plainly: Thrips tabaci sunflower leaf disc spray test. The conditions noted are these: foliar, 144 h, application rate of 200 ppm, mortality 6 days after infestation, mixed ages. The gist of the method:
(§1)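 Leaf discs on agar sprayed with aqueous dilutions of 10'000 ppm DMSO stocks, then infested after drying: Myzus persicae (sunflower, 200 ppm, mixed ages), mortality at 6 DAT; Thrips tabaci (sunflower, mixed ages), mortality at 6 days; Tetranychus urticae (bean, mixed ages), mobile-stage mortality at 8 days; Spodoptera littoralis (cotton), five L1 larvae per disc.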

For assay [3], the system named is Euschistus heros (Neotropical Brown Stink Bug). Put plainly: Euschistus heros soybean plant spray test, N2 nymphs. The conditions noted are these: 120 h, read-out: mortality of Euschistus heros. An excerpt: (§2) The pesticidal/insecticidal properties of the compounds according to embodiments 1 or 2 can be illustrated via the following tests: Spodoptera littoralis (Egyptian cotton leaf worm) • Cotton leaf discs were placed onto agar in 24-well microtiter plates and sprayed with aqueous test solutions prepared from 10'000 ppm DMSO stock solutions. After drying the leaf discs were infested with five L1 larvae. […] Plutella xylostella (Diamond back moth): 24-well microtiter plates with artificial diet were treated with aqueous test solutions prepared from 10'000 ppm DMSO stock solutions by pipetting. After drying, the plates were infested with L2 larvae (10 to 15 per well). The samples were assessed for mortality and growth inhibition in comparison to untreated samples 5 days after infestation. […] Diabrotica balteata, (Corn root worm) • Maize sprouts placed onto an agar layer in 24-well microtiter plates were treated with aqueous test solutions prepared from 10'000 ppm DMSO stock solutions by spraying. After drying, the plates were infested with L2 larvae (6 to 10 per well). […] Thrips tabaci (Onion thrips): Sunflower leaf discs were placed on agar in 24-well microtiter plates and sprayed with aqueous test solutions prepared from 10'000 ppm DMSO stock solutions. After drying the leaf discs were infested with a thrips population of mixed ages. The samples were assessed for mortality 6 days after infestation. […] Tetranychus urticae (Two-spotted spider mite): Bean leaf discs on agar in 24-well microtiter plates were sprayed with aqueous test solutions prepared from 10'000 ppm DMSO stock solutions. After drying the leaf discs were infested with a mite population of mixed ages. The samples were assessed for mortality on mixed population (mobile stages) 8 days after infestation. […] Euschistus heros (Neotropical Brown Stink Bug): • Two weeks old soybean plants were sprayed in a turn table spray chamber with the diluted spray solutions. After drying 2 soybean seeds were added and plants were infested with 10 N2 nymphs of the neotropical brown stink bug Euschistus heros in plastic test boxes. The samples were assessed for mortality in comparison to untreated samples 5 days after infestation. • The following compounds gave at least 80% mortality of Euschistus heros at an application rate of 12.5 ppm: Compounds 3 , 4 , 8 , 39 , 43 , 44 , 46 , 75 , 76 , 77 , 78 , 79 , 80 , 81 , 82 , 88 , 90 , 93 and 95 . Myzus persicae (Green peach aphid): Sunflower leaf discs were placed on agar in a 24-well microtiter plate and sprayed with test solutions at an application rate of 200 ppm. After drying, the leaf discs were infested with an aphid population of mixed ages. After an incubation period of 6 DAT, samples were checked for mortality. The following compounds gave at least 50% mortality of Myzus persicae: Compounds 3 , 4 , 8 , 43 , 44 , 75 , 76 , 77 , 80 , 81 , 90 and 92 . Myzus persicae (Green peach aphid): • Test compounds were applied by pipette into 24 well plates and mixed with Sucrose solution. Application rate: 12.5ppm. The plates were closed with a stretched parafilm. A plastic stencil with 24 holes is placed onto the plate and infested pea seedlings were placed directly on the Parafilm. The infested plate is closed with a gel blotting paper and another plastic stencil and then turned upside down. […]

Assay [4] deals with Myzus persicae (Green peach aphid). Put plainly: Myzus persicae sunflower leaf disc spray test. Conditions: foliar, 144 h, read-out: mortality of Myzus persicae.
Excerpt: as §2

Assay [5] has the same test system. The assay can be described thus: Myzus persicae sucrose solution / Parafilm feeding test. Conditions: 120 h, read-out: mortality of Myzus persicae.
Excerpt: as §2

Assay [6] deals with Diabrotica balteata, (Corn root worm). The assay can be described thus: Diabrotica balteata maize sprout spray test, L2 larvae. The conditions noted are these: 96 h. In short, it runs like this:
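Test solutions in water, made from DMSO stock solutions at 10'000 ppm, were sprayed onto maize sprouts resting on an agar layer in 24-well microtiter plates. Once the treated sprouts had dried, each well was infested with 6 to 10 second-instar (L2) Diabrotica balteata corn rootworm larvae, and mortality was then scored as percent.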

The test system of assay [7] is Tetranychus urticae (Two-spotted spider mite). Put plainly: Tetranychus urticae bean leaf disc spray test. Conditions: foliar, 192 h, application rate of 200 ppm, mortality on mixed population (mobile stages) 8 days after infestation. The gist of the method: as §1
Assay [8] concerns Spodoptera littoralis (Egyptian cotton leaf worm). Put plainly: Spodoptera littoralis cotton leaf disc spray test, L1 larvae. The conditions noted are these: foliar, 72 h. In short, it runs like this:
as §1

The test system of assay [9] is Plutella xylostella (Diamond back moth). Put plainly: Plutella xylostella artificial diet test, L2 larvae. Conditions: 120 h, application rate of 200 ppm, mortality and growth inhibition 5 days after infestation. In short, it runs like this:
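Artificial diet in 24-well microtiter plates was treated by pipetting with aqueous test solutions made from 10'000 ppm DMSO stock solutions. Once dry, each well received 10 to 15 second-instar (L2) Plutella xylostella larvae. Mortality and growth inhibition were scored against untreated samples 5 days after infestation.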

The subject of assay [10] is Diabrotica balteata (Corn root worm). The assay can be described thus: Biological comparison a): insecticidal activity against Diabrotica balteata, maize sprouts. Conditions: 96 h, 4 days after infestation.
Excerpt: as §2

Where [11] appears, read: application rate of 12.5 ppm, 5 days after infestation, N2 nymphs.
The mark [12] stands for this setting: application rate of 200 ppm, leaf disc spray, 6 DAT.
Where [13] appears, read: Application rate: 12.5ppm, sucrose solution, 5 days after infestation.
Where [14] appears, read: application rate of 200 ppm, 4 days after infestation, L2 larvae, read-out: mortality.
Setting [15] is: application rate of 200 ppm, 3 days after infestation, L1 larvae, read-out: mortality.

As a reminder, the mortality is the share of the test organisms that died. Regarding `Cn1nc(C(F)(F)C(F)(F)F)c(C(F)(F)F)c1-n1cc(-c2ccc(Cl)c(C(=O)NC3(C#N)CC3)c2)cn1` [B, reference compound], in assay [1], the mortality at 0.781 ppm came to 0%, the mortality at 3.12 ppm was determined as 25%, the mortality at 12.5 ppm was found to be 90% and the mortality at 50 ppm was found to be 100%. Moreover, the mortality at 200 ppm in assay [1] came to 100%.

One may read the pest or weed control as how far the test organism was held down. A low value points to a weak effect. Consider `Cn1nc(C(F)(F)C(F)(F)F)c(C(F)(F)F)c1-c1cc(-c2ccc(Cl)c(C(=O)NC3CC3F)c2)on1` (centres unmarked) [Compound 81, 2-chloro-N-(2-fluorocyclopropyl)-5-[3-[2-methyl-5-(1,1,2,2,2-pentafluoroethyl)-4-(trifluoromethyl)pyrazol-3-yl]isoxazol-5-yl]benzamide], for which the pest or weed control at 200 ppm in assay [2], in assay [7] and in [9] was at least 80% each time. The mortality at 12.5 ppm in assay [3] (setting [11]) and in assay [5] (setting [13]) was at least 80% in each case. For the same compound, the mortality at 200 ppm in assay [4] (setting [12]) was at least 50%; in [6] (setting [14]) it was at least 80%; in assay [8] (setting [15]), at least 80%.

`Cn1nc(C(F)(F)C(F)(F)F)c(C(F)(F)F)c1-c1cc(-c2ccc(Cl)c(C(=O)NC3(C#N)CC3)c2)no1` [Compound 3, 2-chloro-N-(1-cyanocyclopropyl)-5-[5-[2-methyl-5-(1,1,2,2,2-pentafluoroethyl)-4-(trifluoromethyl)pyrazol-3-yl]isoxazol-3-yl]benzamide]: the pest or weed control at 200 ppm in assay [2], in [7] and in assay [9] was at least 80% throughout. The mortality at 12.5 ppm in assay [3] was at least 80%; in assay [5], at least 50%. Further, the mortality at 200 ppm in [4] is at least 50%; in assay [6] it was at least 80%; in assay [8], at least 80%.

For the compound `Cn1nc(C(F)(F)C(F)(F)F)c(C(F)(F)F)c1-c1cc(-c2ccc(Cl)c(C(=O)NC3(C(N)=S)CC3)c2)on1` [Compound 76, N-(1-carbamothioylcyclopropyl)-2-chloro-5-[3-[2-methyl-5-(1,1,2,2,2-pentafluoroethyl)-4-(trifluoromethyl)pyrazol-3-yl]isoxazol-5-yl]benzamide], the pest or weed control at 200 ppm in [2], in assay [7] and in [9] was at least 80% each time. The mortality at 12.5 ppm in [3] (setting [11]) and in assay [5] (setting [13]) was at least 80% each time. Besides, the mortality at 200 ppm is at least 50% in [4] (setting [12]), at least 80% in assay [6] (setting [14]) and at least 80% in assay [8] (setting [15]).

For `Cn1nc(C(F)(F)C(F)(F)F)c(C(F)(F)F)c1-c1cc(-c2ccc(Cl)c(C(=O)NC3(C#N)CC3)c2)on1` [Compound 4, 2-chloro-N-(1-cyanocyclopropyl)-5-[3-[2-methyl-5-(1,1,2,2,2-pentafluoroethyl)-4-(trifluoromethyl)pyrazol-3-yl]isoxazol-5-yl]benzamide], the pest or weed control at 200 ppm in [2], in assay [7] and in [9] was at least 80% throughout. Also, the mortality at 12.5 ppm in assay [3] (setting [11]) is at least 80%; in assay [1] (Concentration 12.5 ppm, 6 days after infestation, read-out: Mortality (%)), 80%; in assay [5] (setting [13]), at least 80%; in assay [10] (Concentration 12.5 ppm), 100%. The mortality at 200 ppm was at least 50% in [4] (setting [12]); 100% in [1] (Concentration 200 ppm, 6 days after infestation, read-out: Mortality (%)); at least 80% in [6] (setting [14]); at least 80% in assay [8] (setting [15]). The mortality at 0.781 ppm in [1] (Concentration 0.781 ppm, 6 days after infestation, read-out: Mortality (%)) stood at 50%; in [10] (Concentration 0.781 ppm), 100%. The mortality at 3.12 ppm in [1] (Concentration 3.12 ppm, 6 days after infestation, read-out: Mortality (%)) was determined as 65%; in [10] (Concentration 3.12 ppm) it was 100%. The mortality at 50 ppm in assay [1] (Concentration 50 ppm, 6 days after infestation, read-out: Mortality (%)) was 100%; in assay [10] (Concentration 50 ppm) it was 100%. This compound returned a mortality at 0.195 ppm in assay [10] (Concentration 0.195 ppm) of 100%.

For `Cn1nc(C(F)(F)C(F)(F)F)c(C(F)(F)F)c1-c1cc(-c2ccc(Cl)c(C(=O)NC3(C(N)=O)CC3)c2)on1` [Compound 77, N-(1-carbamoylcyclopropyl)-2-chloro-5-[3-[2-methyl-5-(1,1,2,2,2-pentafluoroethyl)-4-(trifluoromethyl)pyrazol-3-yl]isoxazol-5-yl]benzamide], the pest or weed control at 200 ppm in assay [2], in assay [7] and in [9] was at least 80% each time. For the same compound, the mortality at 12.5 ppm in assay [3] (setting [11]) and in assay [5] (setting [13]) was at least 80% throughout. For the same compound, the mortality at 200 ppm in [4] (setting [12]) was at least 50%; in assay [8] (setting [15]), at least 80%.

For the compound `Cn1nc(C(F)(F)C(F)(F)F)c(C(F)(F)F)c1-c1cc(-c2ccc(Cl)c(C(=O)NC3CC3)c2)sn1` [Compound 43, 2-chloro-N-cyclopropyl-5-[3-[2-methyl-5-(1,1,2,2,2-pentafluoroethyl)-4-(trifluoromethyl)pyrazol-3-yl]isothiazol-5-yl]benzamide], the pest or weed control at 200 ppm in assay [2], in assay [7] and in assay [9] was at least 80% in each case. Besides, the mortality at 12.5 ppm in assay [3] (setting [11]) and in assay [5] (setting [13]) was at least 80% in each case. Also, the mortality at 200 ppm in assay [4] (setting [12]) is at least 50%; in assay [6] (setting [14]), at least 80%; in assay [8] (setting [15]) it was at least 80%.
